# Measured values: patent US8901074B2, “Methods of treating autoimmune diseases of the central nervous system (CNS) and neurodegenerative diseases” (Ramot at Tel-Aviv University, priority 2010, dated 2014)
# Where no end group is shown, it is not given here.
# Columns and labels:
# [1] = molecular target: T1, insulin degrading enzyme (IDE) (Homo sapiens, UniProt P14735); test: IDE enzymatic activity inhibition; type: biochemical
# T1 sequence (P14735 1-1019): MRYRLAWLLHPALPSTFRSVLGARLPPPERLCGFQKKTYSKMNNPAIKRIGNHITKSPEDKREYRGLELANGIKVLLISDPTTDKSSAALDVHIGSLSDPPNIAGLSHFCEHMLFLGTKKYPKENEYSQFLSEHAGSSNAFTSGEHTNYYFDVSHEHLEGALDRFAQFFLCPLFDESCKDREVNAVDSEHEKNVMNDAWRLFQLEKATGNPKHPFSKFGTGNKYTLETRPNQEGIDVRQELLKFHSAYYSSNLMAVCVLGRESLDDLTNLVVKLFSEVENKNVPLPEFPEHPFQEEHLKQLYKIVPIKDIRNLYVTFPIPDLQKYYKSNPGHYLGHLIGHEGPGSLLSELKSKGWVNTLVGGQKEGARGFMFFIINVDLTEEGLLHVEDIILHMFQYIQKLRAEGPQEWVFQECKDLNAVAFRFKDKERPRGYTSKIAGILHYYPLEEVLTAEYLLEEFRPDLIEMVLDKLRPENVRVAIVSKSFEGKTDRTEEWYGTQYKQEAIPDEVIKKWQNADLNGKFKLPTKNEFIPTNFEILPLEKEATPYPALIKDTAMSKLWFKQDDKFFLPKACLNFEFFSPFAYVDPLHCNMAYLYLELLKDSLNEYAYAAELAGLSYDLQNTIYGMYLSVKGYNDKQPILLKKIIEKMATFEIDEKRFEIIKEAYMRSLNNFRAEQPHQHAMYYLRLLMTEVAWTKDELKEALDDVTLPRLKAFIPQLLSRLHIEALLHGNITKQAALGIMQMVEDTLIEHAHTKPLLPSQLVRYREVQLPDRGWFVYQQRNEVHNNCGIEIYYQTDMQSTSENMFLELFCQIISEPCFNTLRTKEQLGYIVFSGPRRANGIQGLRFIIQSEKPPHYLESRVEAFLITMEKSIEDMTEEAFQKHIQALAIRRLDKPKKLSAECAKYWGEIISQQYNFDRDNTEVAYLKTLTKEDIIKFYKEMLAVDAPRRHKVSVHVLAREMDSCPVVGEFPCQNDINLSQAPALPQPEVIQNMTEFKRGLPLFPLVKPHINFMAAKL
# Method: The IDE inhibitor of the present teachings specifically down-regulates the enzymatic activity of IDE. For instance, the IC50 of IDE is in the range of 10-200 nM as assayed for ADT-21. According to exemplary embodiments, the IDE inhibitor of the present invention is capable of down-regulating by at least 5%, at least 10%, at least 15%, at least 20%, at least 30%, at least 40%, at least 50%, at least 60%, at least 70%, at least 80%, at least 90% or at least 100% the enzymatic activity of IDE.
# Any method known in the art for measuring IDE activity may be used to assess down-regulation in IDE. For example, one method which may be used comprises the use of an Insulysin/IDE Immunocapture Activity Assay Kit (available e.g. from InnoZyme™, Calbiochem). Using this kit ELISA plates are first coated with the target enzyme (i.e. IDE) and then the plates are incubated with a substrate (e.g. insulin). The enzymatic activity is measured in comparison to wells without the substrate using for example a FRET substrate, Mca-GGFLRKHGQ-EDDnp (SEQ ID NO: 79). Cleavage of the scissile amide bond between R and K releases the fluorophore from the quenching molecule, Dnp, resulting in an increase in fluorescence. The increase in fluorescence is measured using an excitation wavelength of 320 nm and an emission wavelength of 405 nm.
# [2] = Toxicity monitoring (body weight, eating habits, tail tone, mobility) in APP mice; type: in vivo; conditions: 1.07 μg/mouse every other day for 4 months
# Method: 8-week-old APP/PSI mice were used as previously described (Oakley et al 2006, J Neurosci 26: 10129-10140). Mice were treated with either ADT21 (1.07 μg/mouse) or PBS every other day for 4 months.
# Contextual fear conditioning was tested as described previously (Carlos A. et al., 2005) Mice were placed within the conditioning chamber (Coulbourn Instruments, Allentown, Pa.) (7″W×7″D×12″H) for 3 min before the onset of the unconditioned stimulus (US; footshock; 1 s/1 mA) through the cage grid floor (Model H10-11M-TC-SF) from a Coulbourn Instruments shocker (Model H13-15). Activation was detected via a camera above the cage (ACT-VP-01) with a special algorithm for motion detection, to allow them to develop a representation of the context via exploration. After the shock, mice were left in the chamber for 2 min (immediate freezing) and returned to their home cages. 24 hours after the training session, the mice were again placed in the chamber and tested for 4 min without any footshocks. The chamber was isolated in a quiet environment using the noise sealed box (H10-24T Coulbourn Instruments). Freezing response was scored by using the FreezeFrame automated system (Coulbourn Instruments). Furthermore, mice were daily monitored for body weight, eating habits, tail tone and mobility.
sequence,measurement,setting,value
ITNPGSGGSSVLRYDDFHTD [ADT21],IC50,[1],10 to 200 nM
same,"changes in behavior indicating toxicity (body weight, eating habits, tail tone, mobility)",[2],no changes in their behavior
